From ChEMBL document CHEMBL4673279, “Aromatic Ring Substituted Aaptamine Analogues as Potential Cytotoxic Agents against Extranodal Natural Killer/T-Cell Lymphoma” (J Nat Prod, 2020)

What was measured:
[1] = (§1) Cytotoxicity against human SNK6 cells assessed as reduction in cell viability after 48 hrs by CCK8 assay; format: functional, cell-based; conditions: SNK6, 48 h
NB-4 = assay: Cytotoxicity against human NB4 cells assessed as reduction in cell viability after 48 hrs by CCK8 assay; format: functional, cell-based; conditions: NB-4, 48 h
MCF7 = assay: Cytotoxicity against human MCF7 cells assessed as reduction in cell viability after 48 hrs by CCK8 assay; format: functional, cell-based; conditions: MCF7, 48 h
HeLa = assay: Cytotoxicity against human HeLa cells assessed as reduction in cell viability after 48 hrs by CCK8 assay; format: functional, cell-based
Ramos = assay: Cytotoxicity against human Ramos cells assessed as reduction in cell viability after 48 hrs by CCK8 assay; format: functional, cell-based
SNK6 = assay: as §1; format: functional, cell-based
Raji = assay: Cytotoxicity against human Raji cells assessed as reduction in cell viability after 48 hrs by CCK8 assay; format: functional, cell-based
GES1 = assay: Cytotoxicity against human GES1 cells assessed as reduction in cell viability after 48 hrs by CCK8 assay; format: cell-based; conditions: GES1, 48 h
L02 = assay: Cytotoxicity against human L02 cells assessed as reduction in cell viability after 48 hrs by CCK8 assay; format: cell-based; conditions: L02, 48 h
[2] = Cytotoxicity against human NK92 cells assessed as cell viability at 20 uM after 48 hrs by CCK8 assay relative to control; format: cell-based; conditions: read-out: Activity
[3] = Cytotoxicity against human HEK293T cells assessed as cell viability at 20 uM after 48 hrs by CCK8 assay relative to control; format: cell-based, HEK-293T; conditions: read-out: Activity
U-937 = assay: Cytotoxicity against human U937 cells assessed as reduction in cell viability after 48 hrs by CCK8 assay; format: functional, cell-based
SNT8 = assay: Cytotoxicity against human SNT8 cells assessed as reduction in cell viability after 48 hrs by CCK8 assay; format: functional, cell-based
SUD4 = assay: Cytotoxicity against human SU-DHL-4 cells assessed as reduction in cell viability after 48 hrs by CCK8 assay; format: functional, cell-based
[4] = (§2) Cytotoxicity against human WSUDLCL2 cells assessed as reduction in cell viability after 48 hrs by CCK8 assay; format: functional, cell-based; conditions: WSUDLCL2, 48 h
WSUDLCL2 = assay: as §2; format: functional, cell-based

SMILES | IC50 [1] [µM] | IC50 (NB-4) [µM] | IC50 (MCF7) [µM] | IC50 (HeLa) [µM] | other results
COc1c(OC)c2c3c(nccc3c1-c1ccc(C)cc1)C(c1ccc(C)cc1)=CN2 | 11 | 18 | > 20 | 12 | –
COc1c(OC)c2c3c(nccc3c1-c1cccc(C(F)(F)F)c1)C=CN2 | 4.3 | > 20 | 3.2 | 8.9 | –
COc1c(OC)c2c3c(nccc3c1-c1ccc(Cl)cc1)C(c1ccc(Cl)cc1)=CN2 | 8.4 | 17 | > 20 | 11 | –
COc1cc2ccnc3c2c(c1OC)NC=C3c1ccc(Cl)cc1 | > 20 | > 20 | > 20 | > 20 | –
COc1ccc(C2=CNc3c(OC)c(OC)cc4ccnc2c34)cc1 | > 20 | > 20 | > 20 | > 20 | –
COc1cc2ccnc3c2c(c1OC)NC=C3 [AAPTAMINE] | > 20 | > 20 | > 20 | 19 | –
COc1c(OC)c2c3c(nccc3c1-c1ccc(Cl)cc1)C=CN2 | 7.7 | > 20 | 9.4 | 1.9 | –
COc1c(OC)c2c3c(nccc3c1-c1cccc(C(F)(F)F)c1)C(c1cccc(C(F)(F)F)c1)=CN2 | 8.6 | 7.1 | > 20 | 18 | –
COc1c(OC)c2c3c(nccc3c1-c1cccc(C)c1)C(c1cccc(C)c1)=CN2 | 0.6 | 2.1 | 10 | 7.2 | Activity (Ramos): Dose-dependent effect; IC50 (Ramos): 1.4 µM; Activity (SNK6): Dose-dependent effect; Activity (Raji): Dose-dependent effect; IC50 (Raji): 1.4 µM; IC50 (GES1): 2 µM; IC50 (L02): 3.4 µM; viability at 48 h, 20 µM [2]: ≤ 90%; viability at 48 h, 20 µM [3]: ≤ 90%; Activity (U-937): Dose-dependent effect; IC50 (U-937; U-937, 48 h): 2.8 µM; Activity (SNT8): Dose-dependent effect; Activity (SUD4): Dose-dependent effect; IC50 (SUD4; SU-DHL-4, 48 h): 0.8 µM; IC50 [4]: 1.3 µM; Activity (WSUDLCL2): Dose-dependent effect
COc1c(OC)c2c3c(nccc3c1-c1cccc3ccccc13)C=CN2 | 16 | > 20 | > 20 | 18 | –
COc1cc2ccnc3c2c(c1OC)NC=C3c1cccc(O)c1 | > 20 | > 20 | > 20 | > 20 | –
COc1c(OC)c2c3c(nccc3c1-c1cccc(C(C)C)c1)C(c1cccc(C(C)C)c1)=CN2 | > 20 | > 20 | > 20 | > 20 | –
COc1cc2ccnc3c2c(c1OC)NC=C3c1ccccc1 | 8.9 | > 20 | 12 | 17 | –
CCc1ccc(C2=CNc3c(OC)c(OC)cc4ccnc2c34)cc1 | 4.9 | > 20 | > 20 | 11 | –
COc1cc2ccnc3c2c(c1OC)NC=C3c1cccc2ccccc12 | > 20 | > 20 | > 20 | 4 | –
COc1c(OC)c2c3c(nccc3c1-c1ccc(F)cc1)C(c1ccc(F)cc1)=CN2 | > 20 | 19 | > 20 | 8.7 | –

SMILES | IC50 [1] [µM] | IC50 (NB-4) [µM] | IC50 (MCF7) [µM] | IC50 (HeLa) [µM] | other results
COc1c(OC)c2c3c(nccc3c1-c1ccc(C(F)(F)F)cc1)C=CN2 | > 20 | > 20 | 11 | 11 | –
COc1c(OC)c2c3c(nccc3c1-c1cccc3ccccc13)C(c1cccc3ccccc13)=CN2 | > 20 | > 20 | > 20 | 8.2 | –
COc1ccc(C2=CNc3c(OC)c(OC)c(-c4ccc(OC)cc4)c4ccnc2c34)cc1 | 5.8 | > 20 | 12 | 13 | –
COc1ccc(-c2c(OC)c(OC)c3c4c(nccc24)C=CN3)cc1 | 1.7 | > 20 | 9.8 | 11 | –
COc1c(OC)c2c3c(nccc3c1-c1cccc(F)c1)C(c1cccc(F)c1)=CN2 | 10 | > 20 | 20 | 17 | –
COc1cc2ccnc3c2c(c1OC)NC=C3c1cccc(F)c1 | > 20 | > 20 | > 20 | > 20 | –
CCc1ccc(C2=CNc3c(OC)c(OC)c(-c4ccc(CC)cc4)c4ccnc2c34)cc1 | 4.2 | 16 | 18 | 17 | –
COc1c(OC)c2c3c(nccc3c1-c1ccccc1)C=CN2 | > 20 | > 20 | > 20 | > 20 | –
COc1c(OC)c2c3c(nccc3c1-c1ccc(C(F)(F)F)cc1)C(c1ccc(C(F)(F)F)cc1)=CN2 | 9.4 | > 20 | > 20 | > 20 | –
COc1c(OC)c2c3c(nccc3c1-c1ccccc1)C(c1ccccc1)=CN2 | > 20 | > 20 | 19 | 11 | –
COc1c(OC)c2c3c(nccc3c1-c1cc(C)cc(C)c1)C(c1cc(C)cc(C)c1)=CN2 | 3.1 | 7.9 | 8.3 | 5.4 | –
COc1cc2ccnc3c2c(c1OC)NC=C3c1cccc(C)c1 | > 20 | > 20 | > 20 | 12 | –
COc1cc2ccnc3c2c(c1OC)NC=C3c1cccc(C(C)C)c1 | 8.4 | 17 | > 20 | 11 | –
COc1c(OC)c2c3c(nccc3c1-c1cccc(C(C)C)c1)C=CN2 | > 20 | > 20 | > 20 | > 20 | –
COc1cc2ccnc3c2c(c1OC)NC=C3c1cccc(C(F)(F)F)c1 | 8.8 | > 20 | 17 | 15 | –
